The source of these data is patent US6911443B2 (Bayer Aktiengesellschaft, priority 2000, dated 2005).

The target of one assay is T1, human Syk (GST-Syk) (Homo sapiens, UniProt P43405).
T1 construct: A cDNA fragment encoding human Syk openreading frame was cloned; made in house; host or cells: Sf21 insect cells (baculovirus, transfer vector pAcG2T)
Kind of assay: Syk tyrosine kinase inhibitory assay. It counts as biochemical. Conditions: Activity grade (IC50 class), in vitro; compounds as yielded by solid phase synthesis, purity about 40 to 90%. In short, it runs like this:
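Readout: streptavidin-captured biotin-AL peptide probed with europium-4G10 anti-phosphotyrosine, time-resolved fluorescence (ex 340/em 615 nm). Reaction ran 1 h at room temperature with 30 μM ATP, 3 μM peptide, 0.65 nM Sf21-expressed GST-Syk and 0.25% DMSO, pH 8.0.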
Turning to `CCSc1nc(-c2ccc(OC(=O)N(C)C)c(OC)c2)cc2nccn12` [Example 3-12], the IC50 was 2000 to 10000 nM.

Staying with this assay, now noted: Table 11; read-out: Activity grade.
Consider `COc1ccc(-c2cc3nccn3c(Nc3cccc(N)n3)n2)cc1OC` [Example 12-29], for which the IC50 was less than 500 nM. For the molecule `COCCN(C)c1ccc(-c2cc3nccn3c(Nc3ccc(Br)cc3)n2)cc1OC` [Example 12-46], the IC50 is less than 500 nM. The same measure, in the same setting: to `COc1cc(-c2cc3nccn3c(Nc3ccccc3S(C)(=O)=O)n2)ccc1N1CCOCC1` [Example 12-57] belongs less than 500 nM; to `COc1cc(-c2cc3nccn3c(Nc3ccc(Br)cc3)n2)ccc1N1CCOCC1` [Example 12-53], less than 500 nM; to `CCOCCOc1ccc(-c2cc3nccn3c(Nc3ccccc3)n2)cc1OC` [Example 12-20], less than 500 nM.

Still in this assay, the particulars now being: Table 13; read-out: Activity grade.
As for `COc1ccc(-c2cc3nccn3c(SCCc3ccccc3)n2)cc1OC` [Example 14-25], the IC50 was in the range of 500 to 2000 nM.

Take `COc1ccc(CSc2nc(-c3ccc(OC)c(OC)c3)cc3nccn23)cc1` [Example 14-1]: the IC50 was 500 to 2000 nM.

Staying with this assay, now noted: Table 15; read-out: Activity grade.
Turning to `COc1ccc(-c2cc3nccn3c(Sc3nnnn3C)n2)cc1OC` [Example 16-1], the IC50 was less than 500 nM.

Still in this assay, the particulars now being: Table 16; read-out: Activity grade.
As to `CCSc1nc(-c2ccc(NCCN(C)C)c(OC)c2)cc2nccn12` [Example 17-7], the IC50 lay in the range of 500 to 2000 nM. Consider `CCSc1nc(-c2ccc(NCCCN3CCOCC3)c(OC)c2)cc2nccn12` [Example 17-12], for which the IC50 is less than 500 nM. Turning to `CCSc1nc(-c2ccc(OC)c(NCCCCN(C)C)c2)cc2nccn12` [Example 17-1], the IC50 is 500 to 2000 nM. As to `CCSc1nc(-c2ccc(NC)c(OC)c2)cc2nccn12` [Example 17-14], the IC50 lay within 500 to 2000 nM.

The assay is the same for the next values; noted with them: Table 17; IC50 classes; read-out: Activity grade.
Regarding `COc1ccc(-c2cc3nccn3c(Nc3ccc(CC(N)C(=O)OC(C)C)cc3)n2)cc1OC` (centres unmarked) [Example 29], the IC50 was less than 500 nM. Still for that read-out and setting: to `COc1ccc(-c2cc3nccn3c(SCCN)n2)cc1OC` [Example 25] belongs less than 500 nM.

On to `COc1ccc(-c2cc3nccn3c(Cc3ccccc3)n2)cc1OC` [Example 35], for which the IC50 was in the range of 2000 to 10000 nM. Consider `COc1ccc(-c2cc3nccn3c(Sc3ccc(CCC(=O)NCCC#N)cc3)n2)cc1OC` [Example 23], for which the IC50 was less than 500 nM. On to `CNC(=O)CCc1ccc(Sc2nc(-c3ccc(OC)c(OC)c3)cc3nccn23)cc1` [Example 21], for which the IC50 is less than 500 nM. Same read-out and setting: for `COc1ccc(-c2cc3nccn3c(Sc3ccc(CCc4nnn[nH]4)cc3)n2)cc1OC` [Example 24] the value was less than 500 nM.

Staying with this assay, now noted: in vitro; compounds as yielded by solid phase synthesis, purity about 40 to 90%.
Regarding `CCSc1nc(-c2ccc(S(=O)(=O)N3CCN(C)CC3)c(OC)c2)cc2nccn12` [Example 2-9], the “Activity grade (IC50 class)” value is “C-D”.

On to `COc1ccc(-c2cc3nccn3c(N3CCC(Cc4ccccc4)CC3)n2)cc1OC` [Example 9-59], for which the “Activity grade (IC50 class)” value is on record as “C-D”. With `COc1ccc(-c2cc3nccn3c(N3CCN(C(c4ccc(F)cc4)c4ccc(F)cc4)CC3)n2)cc1OC` [Example 9-45], the “Activity grade (IC50 class)” value was “C-D”. Same read-out and setting: for `COC(=O)[C@@H]1CCCN1c1nc(-c2ccc(OC)c(OC)c2)cc2nccn12` [Example 9-71] the value was “C-D”.

The assay is the same for the next values; noted with them: in vitro; compounds as yielded by solid phase synthesis, purity about 40 to 90%; read-out: Activity grade (IC50 class).
For `CCSc1nc(-c2ccc(OCc3ccc(OC)cc3)c(OC)c2)cc2nccn12` [Example 3-3], the IC50 is 500 to 2000 nM.

As for `COc1ccc(-c2cc3nccn3c(Sc3ccccc3OC)n2)cc1OC` [Example 13-2], the IC50 is less than 500 nM.

Turning to `CCSc1nc(-c2ccc(OCCCN3CCCCC3)c(OC)c2)cc2nccn12` [Example 5-7], the IC50 is less than 500 nM.

`COc1ccc(-c2cc3nccn3c(Nc3ccc(CC(=O)O)cc3)n2)cc1OC` [Example 11-22]: the IC50 is less than 500 nM. `COc1ccc(-c2cc3nccn3c(Nc3cccc(N)c3)n2)cc1OC` [Example 11-124]: the IC50 is less than 500 nM.

With `C=CCN(c1ccccc1)c1nc(-c2ccc(OC)c(OC)c2)cc2nccn12` [Example 11-47], the IC50 is less than 500 nM. As to `COc1ccc(-c2cc3nccn3c(Nc3ccccc3O)n2)cc1OC` [Example 11-31], the IC50 is less than 500 nM. Regarding `CCSc1nc(-c2ccc(OC)c(O)c2)cc2nccn12` [Example 4-2], the IC50 is less than 500 nM.

`CCCNc1nc(-c2ccc(OC)c(OC)c2)cc2nccn12` [Example 9-87]: the IC50 is less than 500 nM. With `COc1ccc(-c2cc3nccn3c(Nc3ccc(Br)cc3C(=O)O)n2)cc1OC` [Example 11-85], the IC50 was less than 500 nM. Still for that read-out and setting: to `COc1ccc(-c2cc3nccn3c(N3CCSCC3)n2)cc1OC` [Example 9-75] belongs 500 to 2000 nM; to `COc1ccc(-c2cc3nccn3c(Nc3cccc(N(C)C)c3)n2)cc1OC` [Example 11-81], less than 500 nM. With `COc1ccc(-c2cc3nccn3c(Nc3ccccc3C(=O)NN)n2)cc1OC` [Example 11-13], the IC50 was 2000 to 10000 nM. On the same count and under the same terms, to `COc1ccc(Nc2nc(-c3ccc(N4CCOCC4)c(OC)c3)cc3nccn23)c(C(N)=O)c1` [Example 9-98] belongs less than 500 nM; to `COc1ccc(-c2cc3nccn3c(N3CCN(c4ccccc4F)CC3)n2)cc1OC` [Example 9-47], 2000 to 10000 nM; to `COc1ccc(-c2cc3nccn3c(Sc3ccc(CCC(=O)O)cc3)n2)cc1OC(C)=O` [Example 13-25], less than 500 nM. Regarding `COc1ccc(-c2cc3nccn3c(N3CCN(c4ccccc4OC)CC3)n2)cc1OC` [Example 9-34], the IC50 was 2000 to 10000 nM. On the same count and under the same terms, for `CCN(CC)c1nc(-c2ccc(OC)c(OC)c2)cc2nccn12` [Example 9-56] the value was 500 to 2000 nM. Take `COc1ccc(-c2cc3nccn3c(SC(C)C)n2)cc1OC` [Example 9-9]: the IC50 is less than 500 nM. The same measure, in the same setting: to `COc1ccc(-c2cc3nccn3c(Nc3ccccc3OC(F)(F)F)n2)cc1OC` [Example 11-10] belongs 500 to 2000 nM. As for `CCSc1nc(-c2ccc(OCCCN3CCN(C)CC3)c(OC)c2)cc2nccn12` [Example 5-8], the IC50 was less than 500 nM. For the molecule `COc1ccc(Nc2nc(-c3ccc(OCCN4CCOCC4)c(OC)c3)cc3nccn23)c(C(N)=O)c1` [Example 9-95], the IC50 is less than 500 nM.

Take `COc1ccc(-c2cc3nccn3c(N3CCC(c4ccc(O)cc4)CC3)n2)cc1OC` [Example 9-60]: the IC50 lay within 500 to 2000 nM.

As for `CNc1nc(-c2ccc(OC)c(OC)c2)cc2nccn12` [Example 9-12], the IC50 lay within 500 to 2000 nM. In the case of `COc1ccc(-c2cc3nccn3c(Nc3ccc(N(C)C)cc3)n2)cc1OC` [Example 11-34], the IC50 is less than 500 nM.

For the molecule `COc1ccc(-c2cc3nccn3c(Sc3cccc(C(=O)O)c3)n2)cc1OC` [Example 9-93], the IC50 lay within 500 to 2000 nM.

As to `CCSc1nc(-c2ccc(OC)c(OCc3ccccc3)c2)cc2nccn12` [Example 4-1], the IC50 was in the range of 500 to 2000 nM. Same read-out and setting: for `COc1ccc(-c2cc3nccn3c(Nc3cc([N+](=O)[O-])ccc3C(N)=O)n2)cc1OC` [Example 11-109] the value was less than 500 nM.

On to `CCSc1nc(-c2ccc(OC(C)=O)c(OC)c2)cc2nccn12` [Example 3-7], for which the IC50 is less than 500 nM.

With `CCSc1nc(-c2ccc(SC)c(S(=O)(=O)N3CCN(CCO)CC3)c2)cc2nccn12` [Example 2-4], the IC50 fell in the range of 500 to 2000 nM.

As for `COC(=O)CSc1nc(-c2ccc(OC)c(OC)c2)cc2nccn12` [Example 9-88], the IC50 is less than 500 nM.

With `COc1ccc(-c2cc3nccn3c(Nc3cccc(O)c3)n2)cc1OC` [Example 11-30], the IC50 is less than 500 nM. Take `COc1ccc(-c2cc3nccn3c(Nc3ccc(C(F)(F)F)cc3)n2)cc1OC` [Example 11-71]: the IC50 is less than 500 nM. Take `COc1ccc(-c2cc3nccn3c(N3CCC(C)CC3)n2)cc1OC` [Example 9-62]: the IC50 was in the range of 2000 to 10000 nM. In the case of `CCOC(=O)CSc1nc(-c2ccc(OC)c(OC)c2)cc2nccn12` [Example 9-89], the IC50 lay within 500 to 2000 nM. With `COc1ccc(-c2cc3nccn3c(Nc3cccc(Br)c3)n2)cc1OC` [Example 11-52], the IC50 is less than 500 nM.
